Measurements as given in US4663438A, “Novel nucleic acid-containing glycoprotein” (Kureha Kagaku Kogyo Kabushiki Kaisha, priority 1981, dated 1987).

These compounds were tested on sarcoma-180 cells (assay: Inhibition by monosaccharide of agglutination of sarcoma-180 cells due to the present substance). Conditions: present substance 3 mg with monosaccharide 1.5 mg, 30 min, 37° C.; blank test 18.
Assay type: cell-based, mouse
Method: (ii) Test on the inhibition by monosaccharide of agglutination of sarcoma-180 cells due to the present substance
The same specimen of sarcoma-180 cells suspending in 0.5 ml of Hanks' solution at a rate of 1×10^6 cells/ml as in Test (i) and each 0.5 ml of the physiological saline solution containing 3 mg of the present substance and 1.5 mg of the respective monosaccharides set forth below, which was incubated for 30 min. at 37° C., then discarding the supernatant medium and washing the residue with Hanks' solution, the remaining residue was examined under a microscope to count the number of agglutinated lumps of the cells.

Row | Compound | Number of agglutinated lumps
1 | C[C@H](O)[C@@H](O)[C@@H](O)[C@H](O)C=O [L-fucose] | 27
2 | O=C[C@H](O)[C@@H](O)[C@@H](O)[C@H](O)CO [D-galactose] | 118
3 | CC(=O)N[C@@H]1[C@@H](O)[C@H](O)[C@@H](CO)O[C@H]1O [N--acetylglucosamine] | 85
4 | CO[C@H]1O[C@H](CO)[C@@H](O)[C@H](O)[C@H]1O [methyl α-glucoside] | 115
5 | COC1OC(CO)C(O)C(O)C1O (stereo not drawn) [methyl α-mannoside] | 35
6 | C[C@H](O)[C@H](O)[C@@H](O)[C@@H](O)C=O [L-rhamnose] | 25
